Here are results for 16 molecules from the supplement of paper PMC11061612.

For experiment [1], the system named is 639-V (Bladder Carcinoma). The experiment is described as follows: Bliss excess, mean over the matrix (fraction); higher = more synergy. An outline of the steps: (§1)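 Cell lines grown in DMEM/F12 or RPMI with 10% FBS were plated in 1536-well plates and held 24 hours at 37°C, 5% CO2 before 72 hours of exposure to two-drug dose matrices, with DMSO typically at 0.2%. CellTiter-Glo 2.0 luminescence gave viability, which was converted to inhibition. Vehicle wells were set to 0 and blank wells to 1. Combination Emax is the second-highest inhibition in the matrix, and Bliss excess is the observed combination effect minus the expected EA + EB − EA·EB, where EA and EB are the single-agent effects.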

The subject of experiment [2] is KYSE-410 (Esophageal Squamous Cell Carcinoma). The description is as above. Put shortly: as §1
The subject of experiment [3] is 8305C (Thyroid Gland Carcinoma). The description is as above. An outline of the steps: as §1
Experiment [4] deals with CTB-1 (B-Cell Non-Hodgkin's Lymphoma). The experiment is described as above. Put shortly: as §1
For experiment [5], the system named is MDA-MB-468 (Breast Carcinoma). The description is as above. An outline of the steps:
as §1

Experiment [6] deals with HARA (Squamous Cell Lung Carcinoma). The experiment is described as above. Put shortly: as §1
Experiment [7] deals with NCI-H747 (Colorectal Carcinoma). The description is as above. Put shortly: as §1
Experiment [8] concerns Hs-633T (Other Solid Carcinomas). Described as above. An outline of the steps: as §1
Another experiment concerns SIMA (Neuroblastoma). The experiment is described as follows: combination Emax (second highest fraction inhibited in the dose matrix, 72 h); higher = more inhibition; extreme values may be limits of the assay. An outline of the steps: as §1
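For Bliss excess, mean over the matrix in this document: after 72 h of two-drug dosing.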

Turning to `CC(=O)Nc1cccc(-n2c(=O)n(C3CC3)c(=O)c3c(Nc4ccc(I)cc4F)n(C)c(=O)c(C)c32)c1` [Trametinib] + Cc1nc(-c2cn3c(n2)-c2ccc(-c4cnn(C(C)(C)C(N)=O)c4)cc2OCC3)n(C(C)C)n1 [Taselisib] (first compound max 1 µM, 7x7, partner max 10 µM), the Bliss excess in experiment [1] is 0.068; in [2], 0.168; in [3], 0.0656; in experiment [4] it was 0.0136; in experiment [5], -0.0919; in experiment [6] it was 0.162. Moreover, the Bliss excess in experiment [7] was -0.0203; in [8], 0.191.

For `CC1(C)CCC(CN2CCN(c3ccc(C(=O)NS(=O)(=O)c4ccc(NCC5CCOCC5)c([N+](=O)[O-])c4)c(Oc4cnc5[nH]ccc5c4)c3)CC2)=C(c2ccc(Cl)cc2)C1` [Venetoclax] + CCN(CCO)CCCOc1ccc2c(Nc3cc(CC(=O)Nc4cccc(F)c4)[nH]n3)ncnc2c1 [AZD2811] (first compound max 1 µM, 7x7, partner max 1 µM), the Bliss excess was -0.0262 in experiment [1]; -0.0234 in [2]; -0.0038 in experiment [3]; -0.118 in experiment [4]; -0.086 in experiment [5]; 0.0345 in [6]. Also, the Bliss excess was -0.0429 in experiment [7] and -0.0086 in experiment [8].

Turning to `CC1(C)CCC(CN2CCN(c3ccc(C(=O)NS(=O)(=O)c4ccc(NCC5CCOCC5)c([N+](=O)[O-])c4)c(Oc4cnc5[nH]ccc5c4)c3)CC2)=C(c2ccc(Cl)cc2)C1` [Venetoclax] + C=CCn1c(=O)c2cnc(Nc3ccc(N4CCN(C)CC4)cc3)nc2n1-c1cccc(C(C)(C)O)n1 [AZD1775] (first compound max 1 µM, partner max 1 µM), the Bliss excess is -0.0322 in experiment [1]; -0.0451 in experiment [2]; -0.0431 in experiment [3]; -0.0812 in experiment [4]; -0.0308 in experiment [5]; 0.0494 in [6]. Besides, the Bliss excess is -0.0656 in experiment [7] and 0.017 in [8].

As for `CC1(C)CCC(CN2CCN(c3ccc(C(=O)NS(=O)(=O)c4ccc(NCC5CCOCC5)c([N+](=O)[O-])c4)c(Oc4cnc5[nH]ccc5c4)c3)CC2)=C(c2ccc(Cl)cc2)C1` [Venetoclax] + Cn1cnc2c(F)c(Nc3ccc(Br)cc3Cl)c(C(=O)NOCCO)cc21 [Selumetinib] (first compound max 1 µM, 7x7, partner max 3 µM), the Bliss excess in experiment [1] was 0.0346; in experiment [2], -0.0393; in experiment [3] it was -0.0583; in experiment [4] it was -0.0475; in experiment [5], -0.0693; in experiment [6], -0.0084. The values for the Bliss excess in experiment [7] and in [8] were -0.0489 and -0.0386, respectively.

With `CN(CCO)CC[C@H](CSc1ccccc1)Nc1ccc(S(=O)(=O)NC(=O)c2ccc(N3CCC([C@@H](O)c4ccccc4-c4ccc(Cl)cc4)CC3)cc2)cc1S(=O)(=O)C(F)(F)F` [AZD4320] + Cn1cnc2c(F)c(Nc3ccc(Br)cc3Cl)c(C(=O)NOCCO)cc21 [Selumetinib] (first compound max 1 µM, 7x7, partner max 3 µM), the Bliss excess was 0.22 in experiment [1]; 0.0417 in [2]; 0.097 in [3]; -0.0849 in experiment [4]; -0.0301 in [5]; 0.0265 in experiment [6]. Moreover, the Bliss excess was -0.0306 in experiment [7] and -0.0329 in [8].

As for `CC1(C)CCC(CN2CCN(c3ccc(C(=O)NS(=O)(=O)c4ccc(NCC5CCOCC5)c([N+](=O)[O-])c4)c(Oc4cnc5[nH]ccc5c4)c3)CC2)=C(c2ccc(Cl)cc2)C1` [Venetoclax] + C[C@@H](Nc1cc(F)cc(F)c1)c1cc(C(=O)N(C)C)cc2c(=O)cc(N3CCOCC3)oc12 [AZD8186] (first compound max 1 µM, 7x7, partner max 3 µM), the Bliss excess in experiment [1] was 0.0371; in experiment [2] it was -0.0397; in experiment [3], -0.0423; in experiment [4], -0.0261; in experiment [5], -0.0688; in experiment [6], 0.0144. For the same molecule, the values for the Bliss excess in experiment [7] and in experiment [8] were 0.0197 and -0.017, respectively.

On to `Cc1c2c(nn1C)CSCc1cc(n(C)n1)CSc1cc(c3ccccc3c1)OCCCc1c(C(=O)O)n(C)c3c-2c(Cl)ccc13` [AZD5991] + Cc1cc2ncnn2cc1Nc1ncc2c(n1)n(C1CCOCC1)c(=O)n2C [AZD7648] (first compound max 1 µM, 7x7, partner max 10 µM), for which the “combination Emax” value in the experiment with SIMA (Neuroblastoma) is 0.543. The Bliss excess was -0.005 in [1]; -0.0184 in [2]; -0.0739 in experiment [3]; -0.0345 in experiment [4]; 0.008 in experiment [5]; 0.045 in experiment [6]. Besides, the Bliss excess in [7] was -0.0703; in experiment [8], -0.0097.

On to `CC(=O)c1c(C)c2cnc(Nc3ccc(N4CCNCC4)cn3)nc2n(C2CCCC2)c1=O` [Palbociclib] + Cn1cnc2c(F)c(Nc3ccc(Br)cc3Cl)c(C(=O)NOCCO)cc21 [Selumetinib] (first compound max 10 µM, 7x7, partner max 10 µM), for which the Bliss excess in experiment [1] was -0.0833; in experiment [2], 0.0141; in [3], 0.0123; in experiment [5], -0.0555; in experiment [6] it was 0.0219; in experiment [7], -0.0022. The Bliss excess in experiment [8] was found to be 0.0767.

Turning to `NC1(C(=O)N[C@@H](CCO)c2ccc(Cl)cc2)CCN(c2ncnc3[nH]ccc23)CC1` [Capivasertib] + C[C@@H]1COCCN1C2=NC(=NC(=C2)C3(CC3)[S@](=N)(=O)C)C4=C5C=CNC5=NC=C4 [AZD6738] (first compound max 10 µM, 7x7, partner max 10 µM), the Bliss excess in experiment [1] was -0.0134; in experiment [2], -0.0369; in experiment [3] it was -0.0308; in experiment [5], -0.0652; in [6], -0.0719; in [7], -0.0316. In experiment [8], the Bliss excess was -0.0002.

With `Cc1nc(Nc2ncc(C(=O)Nc3c(C)cccc3Cl)s2)cc(N2CCN(CCO)CC2)n1` [Dasatinib] + CC(=O)Nc1cccc(-n2c(=O)n(C3CC3)c(=O)c3c(Nc4ccc(I)cc4F)n(C)c(=O)c(C)c32)c1 [Trametinib] (first compound max 2 µM, 7x7, partner max 1 µM), the Bliss excess in experiment [1] was -0.0398; in experiment [2], -0.0622; in [3] it was 0.0279; in [5] it was -0.0521; in experiment [6] it was -0.0523; in experiment [7], -0.0238. In [8], the Bliss excess was determined as 0.0302.

Take `CC(=O)c1c(C)c2cnc(Nc3ccc(N4CCNCC4)cn3)nc2n(C2CCCC2)c1=O` [Palbociclib] + Cc1c2c(nn1C)CSCc1cc(n(C)n1)CSc1cc(c3ccccc3c1)OCCCc1c(C(=O)O)n(C)c3c-2c(Cl)ccc13 [AZD5991] (first compound max 10 µM, 7x7, partner max 1 µM): the Bliss excess was -0.0492 in [1]; -0.0657 in experiment [2]; -0.0706 in experiment [3]; 0.0078 in experiment [5]; 0.021 in experiment [6]; -0.0196 in experiment [7]. For the same molecule, the Bliss excess in experiment [8] was 0.004.

For `CC1(C)CCC(CN2CCN(c3ccc(C(=O)NS(=O)(=O)c4ccc(NCC5CCOCC5)c([N+](=O)[O-])c4)c(Oc4cnc5[nH]ccc5c4)c3)CC2)=C(c2ccc(Cl)cc2)C1` [Venetoclax] + C1CN(CCC1(C(=O)N[C@@H](CCO)C2=CC=C(C=C2)Cl)N)C3=NC=NC4=C3C=CN4 [Capivasertib] (first compound max 1 µM, 7x7, partner max 3 µM), the Bliss excess in experiment [1] is -0.108; in experiment [2], -0.0427; in experiment [3], 0.0038; in [4] it was -0.045; in [5], -0.0435; in experiment [6], -0.009. The Bliss excess in experiment [7] was -0.0537; in experiment [8], -0.0185.

With `CC1(C)CCC(CN2CCN(c3ccc(C(=O)NS(=O)(=O)c4ccc(NCC5CCOCC5)c([N+](=O)[O-])c4)c(Oc4cnc5[nH]ccc5c4)c3)CC2)=C(c2ccc(Cl)cc2)C1` [Venetoclax] + CN(C)CCCOc1ccc(-c2ccc3ncc4c(c3c2)n(C2CCOCC2)c(=O)n4C)cn1 [AZD0156] (first compound max 1 µM, 7x7, partner max 1 µM), the Bliss excess in [1] was 0.02; in experiment [2], -0.0377; in experiment [3] it was -0.0626; in experiment [4] it was -0.024; in experiment [5], -0.0294; in experiment [6], -0.0121. The Bliss excess is -0.0497 in experiment [7] and -0.0023 in experiment [8].

For the molecule `CC1(C)CCC(CN2CCN(c3ccc(C(=O)NS(=O)(=O)c4ccc(NCC5CCOCC5)c([N+](=O)[O-])c4)c(Oc4cnc5[nH]ccc5c4)c3)CC2)=C(c2ccc(Cl)cc2)C1` [Venetoclax] + C[C@@H]1COCCN1C2=NC(=NC(=C2)C3(CC3)[S@](=N)(=O)C)C4=C5C=CNC5=NC=C4 [AZD6738] (first compound max 1 µM, 7x7, partner max 10 µM), the Bliss excess is -0.0323 in experiment [1]; -0.0473 in [2]; -0.0471 in experiment [3]; -0.0184 in experiment [4]; -0.028 in experiment [5]; -0.0787 in experiment [6]. Besides, the Bliss excess in experiment [7] was -0.0621; in experiment [8], -0.0455.

Turning to `CC1(C)CCC(CN2CCN(c3ccc(C(=O)NS(=O)(=O)c4ccc(NCC5CCOCC5)c([N+](=O)[O-])c4)c(Oc4cnc5[nH]ccc5c4)c3)CC2)=C(c2ccc(Cl)cc2)C1` [Venetoclax] + COc1cc(Nc2ncc3c(n2)-c2ccc(Cl)cc2C(c2c(F)cccc2OC)=NC3)ccc1C(=O)O [Alisertib] (first compound max 1 µM, 7x7, partner max 10 µM), the Bliss excess is 0.0173 in experiment [1]; -0.0651 in experiment [2]; -0.0592 in experiment [3]; -0.0467 in experiment [4]; 0.0409 in experiment [5]; 0.018 in [6]. Also, the Bliss excess is 0.0071 in experiment [7] and -0.0237 in [8].

Turning to `CC1(C)CCC(CN2CCN(c3ccc(C(=O)NS(=O)(=O)c4ccc(NCC5CCOCC5)c([N+](=O)[O-])c4)c(Oc4cnc5[nH]ccc5c4)c3)CC2)=C(c2ccc(Cl)cc2)C1` [Venetoclax] + Cc1cc2ncnn2cc1Nc1ncc2c(n1)n(C1CCOCC1)c(=O)n2C [AZD7648] (first compound max 1 µM, 7x7, partner max 10 µM), the Bliss excess is -0.0501 in [1]; -0.0471 in [2]; -0.0293 in experiment [3]; -0.0638 in experiment [4]; -0.0299 in [5]; -0.03 in [6]. Besides, the Bliss excess was -0.0124 in experiment [7] and -0.0154 in experiment [8].
